Laboratory results reported in patent publication US11396497B2, “Proteasome inhibitors” (New Mexico Tech University Research Park Corporation, priority 2018, dated 2022).

What was measured:
MCF7 cells = experiment: MTT assay cytotoxicity MCF7; conditions: Homo sapiens, MCF7, read-out: Cytotoxicity MCF7 IC50
Description: The cells were incubated at 37° C. in a humidified atmosphere with 5% CO2.
100 μL of cells were added to each well of a 96 well microtiter plate at a concentration of 4×10^4 cells/mL and incubated overnight to allow proper adhesion. (RPMI 8226 cells were plated at 4×10^5 cells/mL). The cells were treated with the panel of test compounds at a series of concentrations, along with vehicle control DMSO and untreated cells as controls. After 48 h incubation, 20 μL of MTT reagent (3-(4,5-dimethylthiazol-2-yl)-2,5-diphenyltetrazolium bromide) in PBS (5 mg/mL) was added to each well of the plates. The plate was incubated for 2 h at 37° C. For adherent cell lines, the media was removed from each well of the plate and the resulting formazan crystals dissolved in 100 μL of DMSO. For RPMI 8226 cells, 200 ul of DMF/SDS mix (50% DMF. 10% w/v SDS pH<4) was used to solubilize the formazan crystals. Optical density (OD) at 490 nm was measured using a microplate reader. Cells treated with 1 μM phenyl arsine oxide (PAO) served as a positive cell-killing control. Technical replicates of these assays were performed in biological quadruplicate, and the three best values were used for analysis in order to eliminate outliers. Data presented are the average IC50 value calculated from at least 3 technical replicates with the corresponding standard deviation.

[1] = molecular target: T1, yeast proteasome yβ1 subunit (Saccharomyces cerevisiae, UniProt P25043+P38624); experiment: Subunit selectivity, purified yeast proteasome yβ1; format: biochemical; conditions: 8 μg/mL purified yCP; ± SD; read-out: yβ1 IC50
T1 construct: measured using 8 μg/mL of purified yCP or iCP
Description: (§1) The compounds were diluted with lysis buffer; 10 μL of the compound-containing solution was added to the test wells at ten times the final concentration. […] The results are reported as the average of at least 3 technical replicates of IC50 values for proteasome inhibition.
(§2) Values and standard deviations were calculated from an assay performed in biological triplicate.

RPMI 8226 cells = experiment: MTT assay cytotoxicity RPMI 8226; conditions: Homo sapiens, RPMI-8226, read-out: Cytotoxicity RPMI 8226 IC50
[2] = molecular target: T2, yeast proteasome yβ2 subunit (Saccharomyces cerevisiae, UniProt P25043+P25451); experiment: Subunit selectivity, purified yeast proteasome yβ2; format: biochemical; conditions: 8 μg/mL purified yCP; ± SD; read-out: yβ2 IC50
T2 construct: measured using 8 μg/mL of purified yCP or iCP
Description: as §1, §2

MDA-MB-231 cells = experiment: MTT assay cytotoxicity MDA-MB-231; conditions: Homo sapiens, MDA-MB-231, read-out: Cytotoxicity MDA-MB-231 IC50
[3] = molecular target: T3, chymotrypsin-like activity of the 26S proteasome (Homo sapiens, UniProt P28074); experiment: Proteasome assay, chymotrypsin-like (ChT-L) activity, Suc-LLVY-AMC, Jurkat cell lysate; format: biochemical; conditions: Table 5; ± S.D.; read-out: Proteasome Inhib. ChT-L IC50
T3 construct: endogenous in cells; host or cells: Jurkat (ATCC TIB-152, E6-1 clone) cell lysate
T3 sequence (P28074 60-263): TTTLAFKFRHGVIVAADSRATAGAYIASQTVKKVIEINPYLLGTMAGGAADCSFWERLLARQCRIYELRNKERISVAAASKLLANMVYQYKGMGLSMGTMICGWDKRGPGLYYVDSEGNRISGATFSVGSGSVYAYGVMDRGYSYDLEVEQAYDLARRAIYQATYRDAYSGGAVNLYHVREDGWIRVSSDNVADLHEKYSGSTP
Description: The lysate was stored at −80° C. until the sample was used for the proteasome assay.
as §1

[4] = molecular target: T4, yeast proteasome yβ5 subunit (Saccharomyces cerevisiae, UniProt P23724+P30656); experiment: Subunit selectivity, purified yeast proteasome yβ5; format: biochemical; conditions: 8 μg/mL purified yCP; ± SD; read-out: yβ5 IC50
T4 construct: measured using 8 μg/mL of purified yCP or iCP
Description: as §1, §2

[5] = molecular target: T5, immunoproteasome iβ5 subunit (Homo sapiens, UniProt P20618+P28062); experiment: Subunit selectivity, purified immunoproteasome iβ5; format: biochemical; conditions: 8 μg/mL purified iCP; ± SD; read-out: iβ5 IC50
T5 construct: purchased Enzo Life Sciences
Description: as §1, §2

[6] = tested on: MCF-7 breast cancer cell line; experiment: Drug deactivation by serum: cytotoxicity towards MCF-7 in FBS, NBS or human serum; format: cell-based; conditions: MCF-7 cytotoxicity
Description: The deactivation of compounds was evaluated by testing the toxicity of compounds 8 and 12a in three different types of serums (i.e., fetal bovine serum (FBS), newborn bovine serum (NBS), and human serum). FBS is taken during the development of a calf fetus, so the serum has less protein associated with the innate immune system, and less protein altogether compared to NBS and human serum. […] The structural optimization of compound 12a improved the serum stability of the drug: P3 was changed from isopropyl to CH2OBn, and P4 was changed from OBn to NHBn. The OBn group of P4 was more sensitive to deactivation than NHBn.
The MCF-7 cells were cultured in three different types of serum. Assays were performed in biological triplicate, and the data points are reported with the corresponding standard deviation.

[7] = tested on: cancer cells (MCF7, MDA-MB-231, RPMI 8226); experiment: MTT cytotoxicity, cell line not given

CC[C@H](C)[C@@H]1C(=O)O[C@H]1C(=O)N[C@H](C(=O)N[C@@H](COCc1ccccc1)C(=O)NCc1ccccc1)C(C)C [Compound 12a] was tested, and the IC50 (MCF7 cells) was 93.9 ± 2.94 nM, the IC50 [1] was 20400 ± 12900 nM and the IC50 (RPMI 8226 cells) was 28.8 ± 1.09 nM. For the same compound, the IC50 [2] was 13600 ± 5490 nM, the IC50 (MDA-MB-231 cells) was 56.3 ± 3.09 nM and the IC50 [3] was 0.647 ± 0.021 nM. The IC50 [4] was 8.2 ± 1.4 nM, the IC50 [5] was 33 ± 13.4 nM and the “fold decrease in activity with NBS or human serum instead of FBS” value [6] was under 10 fold. For the same compound, the “times less cytotoxic than carfilzomib” value [7] was “about 10 times”.
